# Measurements published in US6737383B1, “Herbicidal oxadiazolidines” (priority 1999, dated 2004).
# Key:
# cocklebur = assay: Test C postemergence cocklebur; format: in vivo, Xanthium strumarium; details: 0 to 100 scale, 0 no effect, 100 complete control
# How it was run: (§1)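 Postemergence spray; formulation = non-phytotoxic solvent + surfactant; soil 60:40 sandy loam:greenhouse potting mix; greenhouse, ~14–21 d; visual rating vs untreated, 0–100 (100 = complete control).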
# common ragweed = assay: Test C postemergence common ragweed; format: in vivo, Ambrosia elatior; details: 0 to 100 scale, 0 no effect, 100 complete control
# How it was run: as §1
# redroot pigweed = assay: Test C postemergence redroot pigweed; format: in vivo, Amaranthus retroflexus; details: 0 to 100 scale, 0 no effect, 100 complete control
# Protocol: (§2) Compounds evaluated in this test were formulated in a non-phytotoxic solvent mixture which included a surfactant and applied to plants that were grown for various periods of time before treatment (postemergence application). A mixture of sandy loam soil and greenhouse potting mix in a 60:40 ratio was used for the postemergence test.
# (§3) Plantings of these crops and weed species were adjusted to produce plants of appropriate size for the postemergence test. All plant species were grown using normal greenhouse practices. Crop and weed species include arrowleaf sida (Sida rhombifolia), barnyardgrass (Echinochloa crus-galli), cocklebur (Xanthium strumarium), common ragweed (Ambrosia elatior), corn (Zea mays), cotton (Gossypium hirsutum), eastern black nightshade (Solanum ptycanthum), fall panicum (Panicum dichotomiflorum), field bindweed (Convolvulus arvensis), giant foxtail (Setaria faberii), hairy beggarticks (Bidens pilosa), ivyleaf morningglory (Ipomoea hederacea), johnsongrass (Sorghum halepense), ladysthumb smartweed (Polygonum persicaria), lambsquarters (Chenopodium album), large crabgrass (Digitaria sanguinalis), purple nutsedge (Cyperus rotundus), redroot pigweed (Amaranthus retroflexus), soybean (Glycine max), surinam grass (Brachiaria decumbens), velvetleaf (Abutilon theophrasti) and wild poinsettia (Euphorbia heterophylla).
# (§4) Treated plants and untreated controls were maintained in a greenhouse for approximately 14, to 21 days, after which all treated plants were compared to untreated controls and visually evaluated. Plant response ratings, summarized in Table C, were based upon a 0 to 100 scale where 0 was no effect and 100 was complete control. A dash response (−) means no test result.
# velvetleaf = assay: Test C postemergence velvetleaf; format: in vivo, Abutilon theophrasti; details: 0 to 100 scale, 0 no effect, 100 complete control
# Protocol: as §2, §3, §4
# annual bluegrass = assay: Test E annual bluegrass; format: in vivo, Poa annua; details: Postemergence; for Plant response rating, Annual bluegras: 0 to 100 scale; for Annual bluegras plant response rating: Rate 250 g/ha, 0 to 100 scale where 0 is no effect and 100 is complete control
# How it was run: (§5)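 Plants were grown under normal greenhouse practice; for postemergence, in sandy loam soil mixed 60:40 with potting mix, treated at the 1- to 4-leaf stage. The compound was in a non-phytotoxic solvent carrying a surfactant. After roughly 21 to 28 days plants were scored visually against untreated plants.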
# littleseed canarygrass = assay: Test E littleseed canarygrass; format: in vivo, Phalaris minor; details: Postemergence; for Plant response rating, LS canarygrass: 0 to 100 scale; for LS canarygrass plant response rating: Rate 250 g/ha, 0 to 100 scale where 0 is no effect and 100 is complete control
# Protocol: as §2, with “in the 1- to 4-leaf stage” for “grown for various periods of time before treatment”
# (§6) Plantings of these crops and weed species were adjusted to produce plants of appropriate size for the postemergence test. All plant species were grown using normal greenhouse practices. Crop and weed species include annual bluegrass (Poa annua), blackgrass (Alopecurus myosuroides), black nightshade (Solanum nigra), chickweed (Stellaria media), common poppy (Papaver rhoeas), deadnettle (Lamium amplexicaule), downy brome (Bromus tectorum), field violet (Viola arvensis), galium (Galium aparine), green foxtail (Setaria viridis), Italian ryegrass (Lolium multiflorum), jointed goatgrass (Aegilops cylindrica), kochia (Kochia scoparia), lambsquarters (Chenopodium album), littleseed canarygrass (Phalaris minor), rape (Brassica napus), redroot pigweed (Amaranthus retroflexus), Russian thistle (Salsola kali), scentless chamomile (Matricaria inodora), spring barley (Hordeum vulgare), sugar beet (Beta vulgaris), sunflower (Helianthus annuus), ivyleaf speedwell (Veronica hederaefolia), spring wheat (Triticum aestivum), winter wheat (Triticum aestivum), wild buckwheat (Polygonum convolvulus), wild mustard (Sinapis arvensis), wild oat (Avena fatua), windgrass (Apera spica-venti) and winter barley (Hordeum vulgare).
# (§7) Treated plants and untreated controls were maintained in a greenhouse for approximately 21 to 28 days, after which all treated plants were compared to untreated controls and visually evaluated. […] A dash response (-) means no test result.
# spring barley [1] = assay: Test E spring barley; format: in vivo, Hordeum vulgare; details: Postemergence; for Plant response rating, Spring Barley: 0 to 100 scale; for Spring Barley plant response rating: Rate 250 g/ha, 0 to 100 scale where 0 is no effect and 100 is complete control
# How it was run: as §5
# wild buckwheat [2] = assay: Test E wild buckwheat; format: in vivo, Polygonum convolvulus; details: Postemergence; for Plant response rating, Wild buckwheat: 0 to 100 scale; for Wild buckwheat plant response rating: Rate 250 g/ha, 0 to 100 scale where 0 is no effect and 100 is complete control
# Protocol: as §2, with “in the 1- to 4-leaf stage” for “grown for various periods of time before treatment”
# as §6, §7
# deadnettle = assay: Test E deadnettle; format: in vivo, Lamium amplexicaule; details: Preemergence; for Deadnettle plant response rating (0 to 100 scale): Rate 250 g/ha
# galium = assay: Test E galium; format: in vivo, Galium aparine; details: Preemergence; for Galium plant response rating (0 to 100 scale): Rate 250 g/ha
# lambsquarters = assay: Test E lambsquarters; format: in vivo, Chenopodium album; details: Preemergence; for Lambsquarters plant response rating (0 to 100 scale): Rate 250 g/ha
# Russian thistle = assay: Test E Russian thistle; format: in vivo, Salsola kali; details: Preemergence; for Russian thistle plant response rating (0 to 100 scale): Rate 250 g/ha
# spring barley [3] = assay: Test E spring barley; format: in vivo, Hordeum vulgare; details: Preemergence; for Spring Barley plant response rating (0 to 100 scale): Rate 250 g/ha
# wild buckwheat [4] = assay: Test E wild buckwheat; format: in vivo, Polygonum convolvulus; details: Preemergence; for Wild buckwheat plant response rating (0 to 100 scale): Rate 250 g/ha
# goosegrass = assay: Test D goosegrass; format: in vivo, Eleusine indica; details: Postemergence, 0 to 100 scale
# itchgrass = assay: Test D itchgrass; format: in vivo, Rottboellia exaltata; details: Postemergence, 0 to 100 scale
# Green foxtail = assay: Test D green foxtail; format: in vivo; details: Postemergence, 0 to 100 scale, 0 no injury, 100 complete control
# [5] = Rate 125 g/ha, 0 to 100 scale (0 no effect, 100 complete control)
# [6] = Rate 125 g/ha, 0 is no effect, 100 is complete control
# [7] = Rate 500 g/ha, 0 is no effect, 100 is complete control
# [8] = Rate 16 g/ha, 0 no injury, 100 complete control
# [9] = Rate 32 g/ha, 0 no injury, 100 complete control
# [10] = Rate 64 g/ha, 0 no injury, 100 complete control
# [11] = Rate 125 g/ha, 0 no injury, 100 complete control
# [12] = Rate 500 g/ha, 0 to 100 scale where 0 is no effect and 100 is complete control
smiles,measurement,setting,value
CC(C)N(C(=O)n1oc(=O)n(C)c1=O)c1ccc(F)cc1 [Compound 138],"Plant response rating, Cocklebur",cocklebur; Rate 140 g/ha,0
same,"Plant response rating, Cocklebur",cocklebur; Rate 280 g/ha,0
same,"Plant response rating, Cocklebur",cocklebur; Rate 560 g/ha,0
same,"Plant response rating, Cocklebur",cocklebur; Rate 1120 g/ha,0
same,Plant response rating Common ragweed,common ragweed; Rate 140 g/ha,0
same,Plant response rating Common ragweed,common ragweed; Rate 280 g/ha,0
same,Plant response rating Common ragweed,common ragweed; Rate 560 g/ha,0
same,"Plant response rating, Redroot pigweed",redroot pigweed; Rate 140 g/ha,0
same,"Plant response rating, Redroot pigweed",redroot pigweed; Rate 280 g/ha,10
same,"Plant response rating, Redroot pigweed",redroot pigweed; Rate 560 g/ha,40
same,"Plant response rating, Redroot pigweed",redroot pigweed; Rate 1120 g/ha,70
same,"Plant response rating, Velvetleaf",velvetleaf; Rate 140 g/ha,0
same,"Plant response rating, Velvetleaf",velvetleaf; Rate 280 g/ha,60
same,"Plant response rating, Velvetleaf",velvetleaf; Rate 560 g/ha,70
same,"Plant response rating, Velvetleaf",velvetleaf; Rate 1120 g/ha,80
same,"Plant response rating, Annual bluegras",annual bluegrass; Rate 125 g/ha,0
same,Annual bluegras plant response rating,annual bluegrass,10
same,"Plant response rating, LS canarygrass",littleseed canarygrass; Rate 125 g/ha,10
same,LS canarygrass plant response rating,littleseed canarygrass,10
same,"Plant response rating, Spring Barley",spring barley [1]; Rate 125 g/ha,0
same,Spring Barley plant response rating,spring barley [1],5
same,"Plant response rating, Wild buckwheat",wild buckwheat [2]; Rate 125 g/ha,0
same,Wild buckwheat plant response rating,wild buckwheat [2],0
same,"Plant response rating, Deadnettle",deadnettle; [5],65
same,Deadnettle plant response rating (0 to 100 scale),deadnettle,70
same,"Plant response rating, Galium",galium; [5],50
same,Galium plant response rating (0 to 100 scale),galium,70
same,Plant response rating Lambsquarters,lambsquarters; [5],100
same,Lambsquarters plant response rating (0 to 100 scale),lambsquarters,100
same,"Plant response rating, Russian thistle",Russian thistle; [5],10
same,Russian thistle plant response rating (0 to 100 scale),Russian thistle,20
same,"Plant response rating, Spring Barley",spring barley [3]; [5],60
same,Spring Barley plant response rating (0 to 100 scale),spring barley [3],90
same,"Plant response rating, Wild buckwheat",wild buckwheat [4]; [5],50
same,Wild buckwheat plant response rating (0 to 100 scale),wild buckwheat [4],100
CC(C)N(C(=O)n1oc(=O)n(C2CC2)c1=O)c1ccc(F)cc1 [Compound 242],"Plant response rating, Cocklebur",cocklebur; Rate 140 g/ha,0
same,"Plant response rating, Cocklebur",cocklebur; Rate 280 g/ha,0
same,"Plant response rating, Cocklebur",cocklebur; Rate 560 g/ha,0
same,"Plant response rating, Cocklebur",cocklebur; Rate 1120 g/ha,20
same,Plant response rating Common ragweed,common ragweed; Rate 140 g/ha,0
same,Plant response rating Common ragweed,common ragweed; Rate 280 g/ha,10
same,Plant response rating Common ragweed,common ragweed; Rate 560 g/ha,80
same,Plant response rating Common ragweed,common ragweed; Rate 1120 g/ha,80
same,"Plant response rating, Redroot pigweed",redroot pigweed; Rate 140 g/ha,0
same,"Plant response rating, Redroot pigweed",redroot pigweed; Rate 280 g/ha,0
same,"Plant response rating, Redroot pigweed",redroot pigweed; Rate 560 g/ha,10
same,"Plant response rating, Redroot pigweed",redroot pigweed; Rate 1120 g/ha,50
same,"Plant response rating, Velvetleaf",velvetleaf; Rate 140 g/ha,0
same,"Plant response rating, Velvetleaf",velvetleaf; Rate 280 g/ha,0
same,"Plant response rating, Velvetleaf",velvetleaf; Rate 560 g/ha,40
same,"Plant response rating, Velvetleaf",velvetleaf; Rate 1120 g/ha,60
same,"Plant response rating, Annual bluegras",annual bluegrass; Rate 62 g/ha,95
same,"Plant response rating, Annual bluegras",annual bluegrass; [6],20
same,Annual bluegras plant response rating,annual bluegrass,10
same,"Plant response rating, Annual bluegras",annual bluegrass; [7],80
same,"Plant response rating, LS canarygrass",littleseed canarygrass; Rate 62 g/ha,65
same,"Plant response rating, LS canarygrass",littleseed canarygrass; [6],10
same,LS canarygrass plant response rating,littleseed canarygrass,15
same,"Plant response rating, LS canarygrass",littleseed canarygrass; [7],50
same,"Plant response rating, Spring Barley",spring barley [1]; Rate 62 g/ha,5
same,"Plant response rating, Spring Barley",spring barley [1]; [6],20
same,Spring Barley plant response rating,spring barley [1],20
same,"Plant response rating, Spring Barley",spring barley [1]; [7],20
same,"Plant response rating, Wild buckwheat",wild buckwheat [2]; Rate 62 g/ha,50
same,"Plant response rating, Wild buckwheat",wild buckwheat [2]; [6],10
same,Wild buckwheat plant response rating,wild buckwheat [2],10
same,"Plant response rating, Wild buckwheat",wild buckwheat [2]; [7],0
same,"Plant response rating, Goosegrass",goosegrass; [8],90
same,"Plant response rating, Goosegrass",goosegrass; [9],100
same,"Plant response rating, Goosegrass",goosegrass; [10],100
same,"Plant response rating, Goosegrass",goosegrass; [11],100
same,"Plant response rating, Goosegrass",goosegrass; Rate 250 g/ha,100
same,"Plant response rating, Itchgrass",itchgrass; [8],0
same,"Plant response rating, Itchgrass",itchgrass; [9],0
same,"Plant response rating, Itchgrass",itchgrass; [10],40
same,"Plant response rating, Itchgrass",itchgrass; [11],80
same,"Plant response rating, Itchgrass",itchgrass; Rate 250 g/ha,100
same,Deadnettle plant response rating (0 to 100 scale),deadnettle,70
same,"Plant response rating, Deadnettle",deadnettle; [12],100
same,"Plant response rating, Galium",galium; [5],0
same,Galium plant response rating (0 to 100 scale),galium,100
same,"Plant response rating, Galium",galium; [12],100
same,Plant response rating Lambsquarters,lambsquarters; [5],100
same,Lambsquarters plant response rating (0 to 100 scale),lambsquarters,100
same,Plant response rating Lambsquarters,lambsquarters; [12],100
same,"Plant response rating, Russian thistle",Russian thistle; [5],20
same,Russian thistle plant response rating (0 to 100 scale),Russian thistle,30
same,"Plant response rating, Russian thistle",Russian thistle; [12],50
same,"Plant response rating, Spring Barley",spring barley [3]; [5],60
same,Spring Barley plant response rating (0 to 100 scale),spring barley [3],70
same,"Plant response rating, Spring Barley",spring barley [3]; [12],85
same,"Plant response rating, Wild buckwheat",wild buckwheat [4]; [5],60
same,Wild buckwheat plant response rating (0 to 100 scale),wild buckwheat [4],70
same,"Plant response rating, Wild buckwheat",wild buckwheat [4]; [12],100
same,"Plant response rating, Green foxtail",Green foxtail; Rate 16 g/ha,30
same,"Plant response rating, Green foxtail",Green foxtail; Rate 32 g/ha,100
CC(C)N(C(=O)n1oc(=O)n(C2CCCCCC2)c1=O)c1ccc(F)cc1F [Compound 342],"Plant response rating, Goosegrass",goosegrass; [8],20
same,"Plant response rating, Goosegrass",goosegrass; [9],30
same,"Plant response rating, Goosegrass",goosegrass; [10],90
same,"Plant response rating, Goosegrass",goosegrass; [11],100
same,"Plant response rating, Goosegrass",goosegrass; Rate 250 g/ha,100
same,"Plant response rating, Itchgrass",itchgrass; [8],0
same,"Plant response rating, Itchgrass",itchgrass; [9],0
same,"Plant response rating, Itchgrass",itchgrass; [10],0
same,"Plant response rating, Itchgrass",itchgrass; [11],0
same,"Plant response rating, Itchgrass",itchgrass; Rate 250 g/ha,0
same,"Plant response rating, Green foxtail",Green foxtail; Rate 16 g/ha,0
same,"Plant response rating, Green foxtail",Green foxtail; Rate 32 g/ha,0
